Laboratory results: the supplement of paper PMC10307832

Legend:
Assay in all cases: relative viability (nuclei count vs DMSO), 5 days (fraction); higher = more cells survive
[1] = compound: C[C@@]1(C(=O)Nc2ccc(F)nc2)CCCN1c1nc(Nc2cc(C3CC3)n[nH]2)c2cccn2n1 + Cc1nc(Nc2ncc(C(=O)Nc3c(C)cccc3Cl)s2)cc(N2CCN(CCO)CC2)n1 [Dasatinib] (partner 0.075 µM)
Summary of the method: (§1)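 Dosing by pin tool came one day after lung cancer cell lines were seeded in 1536-well plates, using either one drug or a fixed anchor-drug dose plus five library-drug doses (not always all listed) in √10 steps. After 5 days, nuclei were counted on 4× images. Relative viability is treated-well nuclei count divided by vehicle-well nuclei count, and values are medians of duplicate plates.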

[2] = compound: CC1(C)CNc2cc(NC(=O)c3cccnc3NCc3ccncc3)ccc21 [Motesanib] + Nc1ncn([C@H]2C[C@H](O)[C@@H](CO)O2)c(=O)n1 [Decitabine] (partner 2 µM)
Summary of the method: as §1

[3] = compound: C[C@@]1(C(=O)Nc2ccc(F)nc2)CCCN1c1nc(Nc2cc(C3CC3)n[nH]2)c2cccn2n1 + CCNC(=O)c1noc(-c2cc(C(C)C)c(O)cc2O)c1-c1ccc(CN2CCOCC2)cc1 [Luminespib] (partner 0.01 µM)
Summary of the method: as §1

[4] = compound: CC1(C)CNc2cc(NC(=O)c3cccnc3NCc3ccncc3)ccc21 [Motesanib] + CC(C)C[C@H](NC(=O)[C@H](Cc1ccccc1)NC(=O)c1cnccn1)B(O)O [Bortezomib] (partner 0.002 µM)
Summary of the method: as §1

Cell Line | relative viability ([1]; first compound 0.04 µM) | relative viability ([1]; first compound 0.1265 µM) | relative viability ([1]; first compound 0.4 µM) | relative viability ([1]; first compound 1.265 µM) | relative viability ([2]; first compound 0.01 µM) | relative viability ([2]; first compound 0.03162 µM) | relative viability ([2]; first compound 0.1 µM) | relative viability ([2]; first compound 0.3162 µM) | relative viability ([2]; first compound 1 µM) | relative viability ([3]; first compound 0.04 µM) | relative viability ([3]; first compound 0.1265 µM) | relative viability ([3]; first compound 0.4 µM) | relative viability ([3]; first compound 1.265 µM) | relative viability ([4]; first compound 0.01 µM) | relative viability ([4]; first compound 0.03162 µM) | relative viability ([4]; first compound 0.1 µM) | relative viability ([4]; first compound 0.3162 µM) | relative viability ([4]; first compound 1 µM)
LC-2-ad | 0.363 | 0.328 | 0.235 | 0.196 | 0.776 | 0.758 | 0.776 | 0.772 | 0.753 | 0.97 | 0.859 | 0.719 | 0.599 | 1.02 | 1.03 | 1.04 | 1.14 | 0.942
LCLC-97TM1 | 0.54 | 0.224 | 0.229 | 0.134 | 0.251 | 0.26 | 0.285 | 0.261 | 0.295 | 0.342 | 0.272 | 0.23 | 0.378 | 0.497 | 0.897 | 0.541 | 0.617 | 0.501
LCLC-103H | 0.412 | 0.35 | 0.237 | 0.174 | 0.774 | 0.729 | 0.833 | 0.815 | 0.759 | 0.92 | 0.766 | 0.733 | 0.927 |  | 1.02 | 1.16 | 1.03 | 1.07
LOU-NH91 | 0.461 | 0.449 | 0.395 | 0.286 | 0.829 | 0.815 | 0.848 | 0.838 | 0.809 | 0.335 | 0.353 | 0.305 | 0.335 | 0.468 | 0.507 | 0.486 | 0.52 | 0.581
LU99A | 0.409 | 0.257 | 0.219 | 0.197 | 0.752 | 0.916 | 0.876 | 0.847 | 1.01 | 0.244 | 0.246 | 0.197 | 0.181 | 1.12 | 1.37 | 0.921 | 1.22 | 1.19
LXF-289 | 0.13 | 0.119 | 0.0865 | 0.0646 | 0.406 | 0.427 | 0.617 | 0.651 | 0.688 | 0.64 | 0.563 | 0.511 | 0.611 | 0.985 | 0.976 | 1.03 | 1.13 | 1.03
NCI-H23 | 0.653 | 0.384 | 0.325 | 0.269 | 0.31 | 0.382 | 0.436 | 0.52 | 0.523 | 0.21 | 0.211 | 0.213 | 0.214 | 1.06 | 0.766 |  | 1.21 | 1.16
NCI-H322M | 0.239 | 0.197 | 0.241 | 0.225 | 0.688 | 0.672 | 0.707 | 0.685 | 0.777 | 0.583 | 0.405 | 0.406 | 0.566 | 1.32 | 1.24 | 1.39 | 1.36 | 1.23
NCI-H441 | 0.385 | 0.155 | 0.223 | 0.203 | 0.271 | 0.307 | 0.502 | 0.514 | 0.478 | 0.258 | 0.175 | 0.221 | 0.267 | 0.542 | 0.47 | 0.434 | 0.644 | 0.583
